# Assay results from patent US10597388B2, “Pyridazinone herbicides” (FMC CORPORATION, priority 2014, dated 2020).
# Tests used:
# Test in all cases: Test D controlled growth environment herbicide test, pre- and postemergence
# Format in all cases: in vivo
# [1] = tested on: buckwheat, wild (wild buckwheat, Polygonum convolvulus)
# Outline: (§1)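 Species sown in silt loam and sprayed preemergence, or grown in peat-based medium to 2–18 cm (1- to 4-leaf stage) and sprayed postemergence, with compounds in non-phytotoxic solvent plus surfactant. Visual injury scored versus controls after 14–21 d in a controlled environment, 0 (no effect) to 100 (complete control).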
# [2] = tested on: radish, wild (wild radish, Raphanus raphanistrum)
# Outline: as §1
# [3] = tested on: speedwell (bird's-eye speedwell, Veronica persica)
# Outline: as §1
# [4] = tested on: bluegrass (annual bluegrass, Poa annua)
# Outline: as §1
# [5] = tested on: field violet (Viola arvensis)
# Outline: as §1
# [6] = tested on: galium (catchweed bedstraw, Galium aparine)
# Outline: as §1
# [7] = tested on: oilseed rape (Brassica napus)
# Outline: as §1
# [8] = tested on: Russian thistle (Salsola kali)
# Outline: as §1
# [9] = tested on: mustard, wild (wild mustard, Sinapis arvensis)
# Outline: as §1
# [10] = tested on: windgrass (Apera spica-venti)
# Outline: as §1
# [11] = tested on: canarygrass (Phalaris minor)
# Outline: as §1
# [12] = tested on: pigweed (Amaranthus retroflexus)
# Outline: as §1
# [13] = tested on: kochia (Kochia scoparia)
# Outline: as §1
# [14] = Postemergence, 31 g ai/ha, scale 0 to 100 (0 no effect, 100 complete control)
# [15] = Postemergence, 125 g ai/ha, visual rating on scale 0 (no effect) to 100 (complete control), 14 to 21 d
# [16] = Postemergence, 250 g ai/ha, scale 0 to 100 (0 no effect, 100 complete control)
# [17] = Preemergence, 62 g ai/ha, scale 0 to 100 (0 no effect, 100 complete control)
# [18] = Preemergence, 125 g ai/ha, scale 0 to 100 (0 no effect, 100 complete control)
# [19] = Preemergence, 250 g ai/ha, scale 0 to 100 (0 no effect, 100 complete control)
# [20] = postemergence, 62 g ai/ha, scale 0 to 100, 0 no effect, 100 complete control
structure (smiles),measurement,setting,value
CC(=O)Oc1c(Br)nn(C)c(=O)c1-c1c(C)ccc2ccccc12 [Compound 129],"Buckwheat, Wild plant response rating",[1]; [14],100
same,"Plant response rating, Buckwheat, Wild",[1]; [15],100
same,"Plant response rating, Buckwheat, Wild",[1]; [16],100
same,"Plant response rating (scale of 0 to 100), Buckwheat, Wild","[1]; Preemergence, 31 g ai/ha",0
same,"Plant response rating, Buckwheat, Wild",[1]; [17],30
same,"Plant response rating, Buckwheat, Wild",[1]; [18],85
same,"Plant response rating, Buckwheat, Wild",[1]; [19],85
same,"Plant response rating, Buckwheat, Wild",[1]; [20],100
same,"Radish, Wild plant response rating",[2]; [14],60
same,"Plant response rating, Radish, Wild",[2]; [15],80
same,"Plant response rating, Radish, Wild",[2]; [16],98
same,"Plant response rating (scale of 0 to 100), Radish, Wild","[2]; Preemergence, 31 g ai/ha",80
same,"Plant response rating (scale of 0 to 100), Radish, Wild","[2]; Preemergence, 62 g ai/ha",100
same,"Plant response rating, Radish, Wild",[2]; [18],100
same,"Plant response rating, Radish, Wild",[2]; [19],100
same,"Plant response rating, Radish, Wild",[2]; [20],75
same,Speedwell plant response rating,[3]; [14],35
same,"Plant response rating, Speedwell",[3]; [15],65
same,"Plant response rating, Speedwell",[3]; [16],75
same,"Plant response rating (scale of 0 to 100), Speedwell","[3]; Preemergence, 31 g ai/ha",90
same,"Plant response rating (scale of 0 to 100), Speedwell","[3]; Preemergence, 62 g ai/ha",100
same,"Plant response rating, Speedwell",[3]; [18],100
same,"Plant response rating, Speedwell",[3]; [19],100
same,"Plant response rating, Speedwell",[3]; [20],60
same,Bluegrass plant response rating,[4]; [14],10
same,"Plant response rating, Bluegrass",[4]; [15],20
same,"Plant response rating, Bluegrass",[4]; [16],30
same,"Plant response rating (scale of 0 to 100), Bluegrass","[4]; Preemergence, 31 g ai/ha",0
same,"Plant response rating, Bluegrass",[4]; [17],10
same,"Plant response rating, Bluegrass",[4]; [18],25
same,"Plant response rating, Bluegrass",[4]; [19],60
same,"Plant response rating, Bluegrass",[4]; [20],15
same,Field Violet plant response rating,[5]; [14],65
same,"Plant response rating, Field Violet",[5]; [15],70
same,"Plant response rating, Field Violet",[5]; [16],75
same,"Plant response rating (scale of 0 to 100), Field Violet","[5]; Preemergence, 31 g ai/ha",85
same,"Plant response rating (scale of 0 to 100), Field Violet","[5]; Preemergence, 62 g ai/ha",85
same,"Plant response rating, Field Violet",[5]; [18],85
same,"Plant response rating, Field Violet",[5]; [19],100
same,"Plant response rating, Field Violet",[5]; [20],70
same,Galium plant response rating,[6]; [14],90
same,"Plant response rating, Galium",[6]; [15],100
same,"Plant response rating, Galium",[6]; [16],100
same,"Plant response rating (scale of 0 to 100), Galium","[6]; Preemergence, 31 g ai/ha",75
same,"Plant response rating (scale of 0 to 100), Galium","[6]; Preemergence, 62 g ai/ha",90
same,"Plant response rating, Galium",[6]; [18],90
same,"Plant response rating, Galium",[6]; [19],95
same,"Plant response rating, Galium",[6]; [20],100
same,Oilseed Rape plant response rating,[7]; [14],5
same,"Plant response rating, Oilseed Rape",[7]; [15],15
same,"Plant response rating, Oilseed Rape",[7]; [16],70
same,"Plant response rating (scale of 0 to 100), Oilseed Rape","[7]; Preemergence, 31 g ai/ha",0
same,"Plant response rating (scale of 0 to 100), Oilseed Rape","[7]; Preemergence, 62 g ai/ha",15
same,"Plant response rating, Oilseed Rape",[7]; [18],55
same,"Plant response rating, Oilseed Rape",[7]; [19],100
same,"Plant response rating, Oilseed Rape",[7]; [20],5
same,Russian Thistle plant response rating,[8]; [14],70
same,"Plant response rating, Russian Thistle",[8]; [15],85
same,"Plant response rating, Russian Thistle",[8]; [16],90
same,"Plant response rating (scale of 0 to 100), Russian Thistle","[8]; Preemergence, 31 g ai/ha",10
same,"Plant response rating (scale of 0 to 100), Russian Thistle","[8]; Preemergence, 62 g ai/ha",50
same,"Plant response rating, Russian Thistle",[8]; [18],100
same,"Plant response rating, Russian Thistle",[8]; [19],100
same,"Plant response rating, Russian Thistle",[8]; [20],80
same,"Mustard, Wild plant response rating",[9]; [14],80
same,"Plant response rating, Mustard, Wild",[9]; [15],98
same,"Plant response rating, Mustard, Wild",[9]; [16],100
same,"Plant response rating (scale of 0 to 100), Mustard, Wild","[9]; Preemergence, 31 g ai/ha",75
same,"Plant response rating (scale of 0 to 100), Mustard, Wild","[9]; Preemergence, 62 g ai/ha",100
same,"Plant response rating, Mustard, Wild",[9]; [18],100
same,"Plant response rating, Mustard, Wild",[9]; [19],100
same,"Plant response rating, Mustard, Wild",[9]; [20],80
same,Windgrass plant response rating,[10]; [14],20
same,"Plant response rating, Windgrass",[10]; [15],55
same,"Plant response rating, Windgrass",[10]; [16],90
same,"Plant response rating (scale of 0 to 100), Windgrass","[10]; Preemergence, 31 g ai/ha",35
same,"Plant response rating (scale of 0 to 100), Windgrass","[10]; Preemergence, 62 g ai/ha",45
same,"Plant response rating, Windgrass",[10]; [18],75
same,"Plant response rating, Windgrass",[10]; [19],80
same,"Plant response rating, Windgrass",[10]; [20],35
same,Canarygrass plant response rating,[11]; [14],30
same,"Plant response rating, Canarygrass",[11]; [15],75
same,"Plant response rating, Canarygrass",[11]; [16],80
same,"Plant response rating (scale of 0 to 100), Canarygrass","[11]; Preemergence, 31 g ai/ha",5
same,"Plant response rating (scale of 0 to 100), Canarygrass","[11]; Preemergence, 62 g ai/ha",15
same,"Plant response rating, Canarygrass",[11]; [18],60
same,"Plant response rating, Canarygrass",[11]; [19],90
same,"Plant response rating, Canarygrass",[11]; [20],55
same,Pigweed plant response rating,[12]; [14],98
same,"Plant response rating, Pigweed",[12]; [15],100
same,"Plant response rating, Pigweed",[12]; [16],100
same,"Plant response rating (scale of 0 to 100), Pigweed","[12]; Preemergence, 31 g ai/ha",100
same,"Plant response rating (scale of 0 to 100), Pigweed","[12]; Preemergence, 62 g ai/ha",100
same,"Plant response rating, Pigweed",[12]; [18],100
same,"Plant response rating, Pigweed",[12]; [19],98
same,"Plant response rating, Pigweed",[12]; [20],98
same,Kochia plant response rating,[13]; [14],60
same,"Plant response rating, Kochia",[13]; [15],80
same,"Plant response rating, Kochia",[13]; [16],85
same,"Plant response rating (scale of 0 to 100), Kochia","[13]; Preemergence, 31 g ai/ha",5
same,"Plant response rating (scale of 0 to 100), Kochia","[13]; Preemergence, 62 g ai/ha",55
same,"Plant response rating, Kochia",[13]; [18],85
same,"Plant response rating, Kochia",[13]; [19],100
same,"Plant response rating, Kochia",[13]; [20],70
